Data as given in ChEMBL document CHEMBL1201862, “PubChem BioAssay data set” (2004).
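Grown in 96-well plates, cells were treated for 48 hours with each compound at five concentrations. Insufficient inhibition: endpoint recorded as highest concentration tested. The concentration for 50% growth inhibition is given as GI50.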 Activity calls are given as the source filed them. Cut-off read from the data, not from the text of the source: active = GI50 up to about 1.1 µM and inactive = higher.

Legend:
Assay in all cases: NCI tumour cell line growth inhibition, 48 h
HCT-116 = test system: HCT-116
SK-MEL-5 = test system: SK-MEL-5
TK-10 = test system: TK-10
A549 = test system: A549
HL-60 = test system: HL-60
UACC-62 = test system: UACC-62
MOLT-4 = test system: MOLT-4
OVCAR-5 = test system: OVCAR-5
UACC-257 = test system: UACC-257
COLO 205 = test system: COLO 205
HOP-62 = test system: HOP-62
SK-MEL-28 = test system: SK-MEL-28
OVCAR-8 = test system: OVCAR-8
IGROV-1 = test system: IGROV-1
RPMI-8226 = test system: RPMI-8226
M14 = test system: M14
T47D = test system: T47D
DU-145 = test system: DU-145
SF-268 = test system: SF-268
HOP-92 = test system: HOP-92

Measured: GI50

COc1ccc(C(=O)/C=C/c2ccc(OCCCOc3ccc(/C=C/C(=O)c4ccc(OC)cc4)cc3)cc2)cc1
inactive: HCT-116 24.7 µM | SK-MEL-5 > 100 µM | TK-10 > 100 µM | A549 > 100 µM | HL-60 > 100 µM | UACC-62 > 100 µM | MOLT-4 > 100 µM | OVCAR-5 > 100 µM | UACC-257 > 100 µM | COLO 205 > 100 µM | HOP-62 > 100 µM | SK-MEL-28 63 µM | OVCAR-8 > 100 µM | IGROV-1 > 100 µM | RPMI-8226 21.8 µM | M14 > 100 µM | T47D > 100 µM | DU-145 > 100 µM | SF-268 52.2 µM

c1coc(-c2nccc3c2[nH]c2ccccc23)c1
inactive: HCT-116 > 100 µM | SK-MEL-5 > 100 µM | TK-10 > 100 µM | A549 > 100 µM | HL-60 > 100 µM | UACC-62 > 100 µM | MOLT-4 > 100 µM | OVCAR-5 > 100 µM | UACC-257 > 100 µM | COLO 205 17.5 µM | HOP-62 > 100 µM | HOP-92 35 µM | SK-MEL-28 > 100 µM | OVCAR-8 > 100 µM | IGROV-1 > 100 µM | M14 > 100 µM | T47D > 100 µM | DU-145 > 100 µM | SF-268 > 100 µM

COc1ccc2c(c1)-c1[nH]c3ccc(OC)cc3c1CC2
inactive: HCT-116 17.1 µM | SK-MEL-5 13.1 µM | TK-10 16.8 µM | A549 14.3 µM | UACC-62 15.1 µM | MOLT-4 11 µM | OVCAR-5 14.5 µM | UACC-257 17.7 µM | COLO 205 18 µM | HOP-62 16.3 µM | HOP-92 19.2 µM | SK-MEL-28 16.4 µM | OVCAR-8 13.9 µM | IGROV-1 13.6 µM | RPMI-8226 15.6 µM | M14 15 µM | T47D 8.05 µM | DU-145 17.1 µM | SF-268 14.1 µM

COc1cc2c(cc1OC)C(=O)C1(C2)[C@H](c2ccccc2)C2C(=O)c3cc(OC)c(OC)cc3C2[C@H]1c1ccccc1 (stereo partly specified)
inactive: HCT-116 > 100 µM | SK-MEL-5 > 100 µM | TK-10 > 100 µM | A549 31 µM | HL-60 > 100 µM | UACC-62 > 100 µM | MOLT-4 > 100 µM | OVCAR-5 > 100 µM | UACC-257 > 100 µM | COLO 205 > 100 µM | HOP-62 > 100 µM | SK-MEL-28 > 100 µM | OVCAR-8 > 100 µM | IGROV-1 > 100 µM | RPMI-8226 > 100 µM | M14 > 100 µM | T47D 10.5 µM | DU-145 > 100 µM | SF-268 > 100 µM

CC1=CC(C/C(C)=C/COc2ccc3ccc(=O)oc3c2)OC1=O (stereo unspecified)
inactive: HCT-116 92.7 µM | SK-MEL-5 53.6 µM | TK-10 > 100 µM | A549 > 100 µM | HL-60 59.4 µM | UACC-62 > 100 µM | MOLT-4 49.8 µM | OVCAR-5 > 100 µM | UACC-257 47.4 µM | COLO 205 > 100 µM | HOP-62 > 100 µM | HOP-92 > 100 µM | SK-MEL-28 > 100 µM | OVCAR-8 > 100 µM | IGROV-1 > 100 µM | M14 > 100 µM | T47D > 100 µM | DU-145 > 100 µM | SF-268 > 100 µM

CCC(CN(C)C)C(=O)c1ccco1 (stereo unspecified)
inactive: HCT-116 > 100 µM | TK-10 > 100 µM | A549 > 100 µM | UACC-62 > 100 µM | MOLT-4 22.3 µM | OVCAR-5 > 100 µM | UACC-257 > 100 µM | HOP-62 > 100 µM | HOP-92 23 µM | SK-MEL-28 > 100 µM | OVCAR-8 > 100 µM | IGROV-1 > 100 µM | RPMI-8226 68.5 µM | M14 > 100 µM | T47D > 100 µM | DU-145 > 100 µM | SF-268 54.8 µM

Oc1ccc(-c2nc(-c3cccnc3)c(-c3ccc(F)cc3)[nH]2)cc1
inactive: HCT-116 17.4 µM | SK-MEL-5 16.3 µM | TK-10 18.6 µM | A549 21.8 µM | HL-60 15.8 µM | UACC-62 16 µM | MOLT-4 10 µM | OVCAR-5 30.2 µM | UACC-257 17.6 µM | COLO 205 19.5 µM | HOP-62 21.6 µM | SK-MEL-28 19.9 µM | OVCAR-8 17.9 µM | IGROV-1 17.5 µM | RPMI-8226 10.2 µM | M14 17.7 µM | T47D 17.4 µM | DU-145 24 µM | SF-268 22.5 µM
